Experimental findings from ChEMBL document CHEMBL4052654, “Development of novel N-3-bromoisoxazolin-5-yl substituted 2,3-benzodiazepines as noncompetitive AMPAR antagonists” (Bioorg Med Chem, 2017) are described below.

SMILES strings stand for the structures. pKi: −log10 of the molar value.

The target of experiment [1] is T1, Glutamate receptor 2 (Homo sapiens, UniProt P42262). The experiment is described as follows: Antagonist activity at closed state of GluA2Qflip isoform (unknown origin) expressed in HEK293 cells assessed as reduction in glutamate-induced current response at 1 uM in presence of 0.1 mM glutamate by whole cell assay relative to control. It counts as cell-based.
T1 sequence (P42262 whole entry, canonical isoform): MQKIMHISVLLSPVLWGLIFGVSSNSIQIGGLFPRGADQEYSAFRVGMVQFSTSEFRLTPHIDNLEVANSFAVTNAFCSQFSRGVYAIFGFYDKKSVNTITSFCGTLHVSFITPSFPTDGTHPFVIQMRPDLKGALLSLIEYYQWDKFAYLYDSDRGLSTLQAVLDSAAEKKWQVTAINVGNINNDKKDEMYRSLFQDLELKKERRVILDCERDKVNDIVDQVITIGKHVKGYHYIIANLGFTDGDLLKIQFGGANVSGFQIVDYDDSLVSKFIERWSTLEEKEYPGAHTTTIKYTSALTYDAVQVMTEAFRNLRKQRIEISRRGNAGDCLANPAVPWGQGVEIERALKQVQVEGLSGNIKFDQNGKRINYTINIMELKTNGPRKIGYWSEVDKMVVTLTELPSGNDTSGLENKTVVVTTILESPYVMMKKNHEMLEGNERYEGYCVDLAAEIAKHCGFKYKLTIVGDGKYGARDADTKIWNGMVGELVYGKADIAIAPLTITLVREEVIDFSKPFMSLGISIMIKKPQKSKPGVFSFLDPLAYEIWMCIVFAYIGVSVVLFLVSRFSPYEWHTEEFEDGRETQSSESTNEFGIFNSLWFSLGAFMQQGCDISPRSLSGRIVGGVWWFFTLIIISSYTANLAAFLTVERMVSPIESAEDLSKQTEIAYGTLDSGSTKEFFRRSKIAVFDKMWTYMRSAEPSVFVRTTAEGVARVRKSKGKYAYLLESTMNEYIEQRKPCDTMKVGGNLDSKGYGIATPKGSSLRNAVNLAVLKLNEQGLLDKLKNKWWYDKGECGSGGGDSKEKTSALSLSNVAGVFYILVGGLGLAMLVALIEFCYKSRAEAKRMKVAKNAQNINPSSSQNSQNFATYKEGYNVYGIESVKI
For experiment [2], the target named is T1, Glutamate receptor 2. The experiment is described as follows: Antagonist activity at open state of GluA2Qflip isoform (unknown origin) expressed in HEK293 cells assessed as reduction in glutamate-induced current response at 1 uM in presence of 3 mM glutamate by whole cell assay relative to control. The class given is cell-based.
The target in experiment [3] is T1, Glutamate receptor 2. The experiment can be described thus: Antagonist activity at closed state of GFP-tagged GluA2Qflip isoform (unknown origin) expressed in HEK293S cells assessed as reduction in glutamate-induced current response in presence of 0.1 mM glutamate by whole cell assay. The class given is cell-based.
Experiment [4] addresses T1, Glutamate receptor 2. The experiment can be described thus: Antagonist activity at open state of GFP-tagged GluA2Qflip isoform (unknown origin) expressed in HEK293S cells assessed as reduction in glutamate-induced current response in presence of 3 mM glutamate by whole cell assay relative to control. The class given is cell-based.
Experiment [5] deals with T1, Glutamate receptor 2. The experiment is described as follows: Antagonist activity at closed state of GluA2Qflip isoform (unknown origin) expressed in HEK293 cells assessed as reduction in glutamate-induced current response in presence of 0.1 mM glutamate by whole cell assay. The class given is cell-based.
Experiment [6] addresses T1, Glutamate receptor 2. The experiment can be described thus: Antagonist activity at open state of GluA2Qflip isoform (unknown origin) expressed in HEK293 cells assessed as reduction in glutamate-induced current response in presence of 3 mM glutamate by whole cell assay relative to control. It counts as cell-based. The conditions noted are these: for pKi: read-out: Ki.

The target of experiment [7] is T1, Glutamate receptor 2. The experiment is described as follows: Antagonist activity at open state of GluA2Qflip isoform (unknown origin) expressed in HEK293 cells assessed as reduction in glutamate-induced current response at 2.5 uM in presence of 3 mM glutamate by whole cell assay relative to control. It counts as cell-based.
Experiment [8] has as its target T1, Glutamate receptor 2. The experiment is described as follows: Antagonist activity at closed state of GluA2Qflip isoform (unknown origin) expressed in HEK293 cells assessed as reduction in glutamate-induced current response at 2.5 uM in presence of 0.1 mM glutamate by whole cell assay relative to control. The class given is cell-based.
Experiment [9] concerns the target T2, Glutamate receptor 1 (Homo sapiens, UniProt P42261). The experiment can be described thus: Antagonist activity at closed state of GluA1 (unknown origin) assessed as reduction in glutamate-induced current response in presence of 40 to 50 uM glutamate.
In experiment [10] the target is T3, Glutamate receptor 3 (Homo sapiens, UniProt P42263). The experiment is described as follows: Antagonist activity at open state of GluA3 (unknown origin) assessed as reduction in glutamate-induced current response in presence of 3 mM glutamate relative to control.
T3 sequence (P42263 whole entry): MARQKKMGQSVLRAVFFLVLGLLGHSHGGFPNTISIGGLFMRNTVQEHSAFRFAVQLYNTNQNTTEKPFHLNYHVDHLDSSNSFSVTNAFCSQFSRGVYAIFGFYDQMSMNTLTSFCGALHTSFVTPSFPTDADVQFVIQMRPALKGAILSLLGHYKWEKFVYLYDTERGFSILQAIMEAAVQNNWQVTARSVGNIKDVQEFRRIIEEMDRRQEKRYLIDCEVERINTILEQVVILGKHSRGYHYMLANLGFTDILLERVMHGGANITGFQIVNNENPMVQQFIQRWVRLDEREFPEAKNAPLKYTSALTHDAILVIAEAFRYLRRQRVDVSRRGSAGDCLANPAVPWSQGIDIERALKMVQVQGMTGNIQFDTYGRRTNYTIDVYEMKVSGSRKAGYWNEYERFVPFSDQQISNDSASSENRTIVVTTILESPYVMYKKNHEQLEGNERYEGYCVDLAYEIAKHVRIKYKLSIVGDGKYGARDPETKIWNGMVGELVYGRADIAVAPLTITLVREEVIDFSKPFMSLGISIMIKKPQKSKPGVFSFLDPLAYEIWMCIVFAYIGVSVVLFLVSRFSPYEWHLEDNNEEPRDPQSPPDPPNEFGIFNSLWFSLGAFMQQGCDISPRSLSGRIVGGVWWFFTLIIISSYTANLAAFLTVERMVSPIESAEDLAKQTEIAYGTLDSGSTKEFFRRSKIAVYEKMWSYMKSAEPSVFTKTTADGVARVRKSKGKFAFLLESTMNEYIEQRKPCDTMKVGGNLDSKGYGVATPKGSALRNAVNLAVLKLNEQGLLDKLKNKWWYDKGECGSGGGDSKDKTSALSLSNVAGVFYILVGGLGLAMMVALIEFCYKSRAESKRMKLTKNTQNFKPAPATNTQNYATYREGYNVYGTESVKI
Experiment [11] has as its target T2, Glutamate receptor 1. The experiment can be described thus: Antagonist activity at open state of GluA1 (unknown origin) assessed as reduction in glutamate-induced current response in presence of 2 mM glutamate.
Experiment [12] addresses T3, Glutamate receptor 3. The experiment is described as follows: Antagonist activity at closed state of GluA3 (unknown origin) assessed as reduction in glutamate-induced current response in presence of 100 uM glutamate.
Experiment [13] deals with T2, Glutamate receptor 1. The experiment can be described thus: Antagonist activity at open state of GluA1 (unknown origin) assessed as reduction in glutamate-induced current response in presence of 2 mM glutamate relative to control.
Experiment [14] has as its target T3, Glutamate receptor 3. The experiment is described as follows: Antagonist activity at open state of GluA3 (unknown origin) assessed as reduction in glutamate-induced current response in presence of 3 mM glutamate.
The target of experiment [15] is T4, Glutamate receptor 4 (Homo sapiens, UniProt P48058). The experiment can be described thus: Antagonist activity at closed state of GluA4 (unknown origin) assessed as reduction in glutamate-induced current response in presence of 100 uM glutamate relative to control.
T4 sequence (P48058 whole entry): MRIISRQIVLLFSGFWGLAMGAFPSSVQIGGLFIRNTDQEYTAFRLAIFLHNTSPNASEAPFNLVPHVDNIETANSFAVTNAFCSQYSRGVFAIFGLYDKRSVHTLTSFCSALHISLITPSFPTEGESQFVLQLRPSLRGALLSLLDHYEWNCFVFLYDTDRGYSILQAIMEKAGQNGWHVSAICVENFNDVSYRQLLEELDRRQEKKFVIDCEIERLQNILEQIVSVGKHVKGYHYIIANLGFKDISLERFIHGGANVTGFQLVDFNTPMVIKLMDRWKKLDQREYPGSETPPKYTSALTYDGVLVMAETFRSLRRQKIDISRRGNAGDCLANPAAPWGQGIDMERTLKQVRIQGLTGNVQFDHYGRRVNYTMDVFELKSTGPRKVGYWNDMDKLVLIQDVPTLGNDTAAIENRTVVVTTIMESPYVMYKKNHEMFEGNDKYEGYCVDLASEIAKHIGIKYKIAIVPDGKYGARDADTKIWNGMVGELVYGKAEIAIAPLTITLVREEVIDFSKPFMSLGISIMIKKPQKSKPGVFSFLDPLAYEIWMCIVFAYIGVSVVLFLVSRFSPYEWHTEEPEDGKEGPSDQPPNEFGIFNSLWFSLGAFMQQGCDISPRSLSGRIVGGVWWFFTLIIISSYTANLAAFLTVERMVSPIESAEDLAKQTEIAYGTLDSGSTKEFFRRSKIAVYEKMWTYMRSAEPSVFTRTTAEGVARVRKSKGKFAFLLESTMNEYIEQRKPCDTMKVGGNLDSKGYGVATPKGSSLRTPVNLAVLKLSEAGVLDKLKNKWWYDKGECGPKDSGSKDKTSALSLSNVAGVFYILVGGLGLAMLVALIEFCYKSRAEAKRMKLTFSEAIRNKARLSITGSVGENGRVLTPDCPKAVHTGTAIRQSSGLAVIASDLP
Experiment [16] addresses T4, Glutamate receptor 4. The experiment is described as follows: Antagonist activity at open state of GluA4 (unknown origin) assessed as reduction in glutamate-induced current response in presence of 3 mM glutamate relative to control.
The target of experiment [17] is T4, Glutamate receptor 4. The experiment can be described thus: Antagonist activity at closed state of GluA4 (unknown origin) assessed as reduction in glutamate-induced current response in presence of 100 uM glutamate.
The target of experiment [18] is T2, Glutamate receptor 1. The experiment can be described thus: Antagonist activity at closed state of GluA1 (unknown origin) assessed as reduction in glutamate-induced current response in presence of 40 to 50 uM glutamate relative to control.
The target in experiment [19] is T4, Glutamate receptor 4. The experiment is described as follows: Antagonist activity at open state of GluA4 (unknown origin) assessed as reduction in glutamate-induced current response in presence of 3 mM glutamate.
For experiment [20], the target named is T3, Glutamate receptor 3. The experiment can be described thus: Antagonist activity at closed state of GluA3 (unknown origin) assessed as reduction in glutamate-induced current response in presence of 100 uM glutamate relative to control.
Experiment [21] concerns the target T1, Glutamate receptor 2. The experiment is described as follows: Antagonist activity at closed state of GluA2Qflip isoform (unknown origin) expressed in HEK293 cells assessed as reduction in glutamate-induced current response at 10 uM in presence of 0.1 mM glutamate by whole cell assay relative to control. It counts as cell-based.
Experiment [22] addresses T1, Glutamate receptor 2. The experiment can be described thus: Antagonist activity at open state of GluA2Qflip isoform (unknown origin) expressed in HEK293 cells assessed as reduction in glutamate-induced current response at 10 uM in presence of 3 mM glutamate by whole cell assay relative to control. It counts as cell-based.

T2 sequence (P42261 whole entry): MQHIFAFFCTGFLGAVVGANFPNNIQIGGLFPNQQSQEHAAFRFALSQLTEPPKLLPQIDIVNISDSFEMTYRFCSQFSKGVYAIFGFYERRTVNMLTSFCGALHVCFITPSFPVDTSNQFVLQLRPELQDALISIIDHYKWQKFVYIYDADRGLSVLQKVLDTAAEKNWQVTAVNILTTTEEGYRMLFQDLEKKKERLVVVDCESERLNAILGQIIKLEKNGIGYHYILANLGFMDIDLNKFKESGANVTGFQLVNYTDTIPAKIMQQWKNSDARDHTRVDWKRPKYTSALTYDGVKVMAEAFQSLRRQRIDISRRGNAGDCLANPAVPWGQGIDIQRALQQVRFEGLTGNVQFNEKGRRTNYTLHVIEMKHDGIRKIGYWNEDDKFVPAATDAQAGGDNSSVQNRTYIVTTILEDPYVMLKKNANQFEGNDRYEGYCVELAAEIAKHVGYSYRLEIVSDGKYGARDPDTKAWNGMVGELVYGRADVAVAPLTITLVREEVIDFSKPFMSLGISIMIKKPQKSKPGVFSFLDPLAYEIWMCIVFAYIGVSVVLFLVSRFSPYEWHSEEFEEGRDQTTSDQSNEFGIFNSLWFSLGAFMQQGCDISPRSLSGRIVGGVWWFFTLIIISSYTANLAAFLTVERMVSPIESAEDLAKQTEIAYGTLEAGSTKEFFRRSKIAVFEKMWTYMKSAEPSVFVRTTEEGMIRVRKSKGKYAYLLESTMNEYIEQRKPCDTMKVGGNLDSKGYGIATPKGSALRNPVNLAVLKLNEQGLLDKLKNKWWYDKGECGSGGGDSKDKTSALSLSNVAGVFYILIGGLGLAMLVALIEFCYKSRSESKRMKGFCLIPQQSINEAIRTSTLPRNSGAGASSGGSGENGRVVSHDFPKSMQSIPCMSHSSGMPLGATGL

Regarding `Nc1ccc(C2=NN(CC3CC(Br)=NO3)C(=O)Cc3cc4c(cc32)OCCO4)cc1` (stereo not drawn), the fold change (FC) came to 1.44 in [1] and 1.09 in experiment [2].
Take `Cc1cc(C2=NNC(=O)Cc3cc4c(cc32)OCCO4)cc(C)c1N`: the pKi in experiment [3] is 4.03; in [4], 3.79.
The like results for `CC1=NN=C(c2ccc(N)cc2)c2cc3c(cc2C1)OCO3` [GYKI-52466] were, in that order, 5.40 and 5.30.
As to `Cc1cc(C2=NN(C3CC(Br)=NO3)C(=O)Cc3cc4c(cc32)OCCO4)cc(C)c1N` (stereo not drawn), the fold change (FC) in experiment [1] was determined as 1.21; in [2], 1.24.
Take `Cc1cc(C2=NNC(=O)Cc3cc4c(cc32)OCCO4)ccc1N`: the negative logarithm of the Ki (pKi) is 5.40 in experiment [3] and 5.05 in experiment [4].
Take `Cc1cc(C2=NN(C3CC(Br)=NO3)C(=O)Cc3cc4c(cc32)OCCO4)ccc1N` (stereo not drawn): the fold change (FC) in experiment [1] was determined as 1.01; in experiment [2], 1.16.
Take `Nc1ccc(C2=NN(C3CC(Br)=NO3)C(=O)Cc3cc4c(cc32)OCCO4)cc1` (stereo not drawn): the negative logarithm of the Ki (pKi) was 5.52 in [5] and 4.85 in experiment [6]. Besides, the figures for the fold change (FC) in [7] and in experiment [8] were 1.18 and 1.75, respectively.
In the case of `Cc1cc(C2=NN(CC3CC(Br)=NO3)C(=O)Cc3cc4c(cc32)OCCO4)cc(C)c1N` (stereo not drawn), the negative logarithm of the Ki (pKi) in experiment [9] is 4.88; in experiment [5], 5.30; in experiment [11], 5.19; in [12] it was 4.56; in [14], 4.86; in [17], 5.13. Also, in [19], the pKi is 4.94. Moreover, the fold change (FC) in experiment [10] amounted to 1.18; in [13], 1.39; in [15], 1.34; in experiment [16], 1.22; in [18], 1.19; in experiment [20], 1.09. Also, the fold change (FC) in experiment [7] was found to be 0.95; in [8] it was 1.46. Moreover, the Ki entry in [6] is reported as “Not Active”.
For the compound `Nc1ccc(C2=NNC(=O)Cc3cc4c(cc32)OCCO4)cc1`, the negative logarithm of the Ki (pKi) in experiment [3] is 4.68; in experiment [4], 4.48.
`Cc1cc(C2=NN(CC3CC(Br)=NO3)C(=O)Cc3cc4c(cc32)OCCO4)ccc1N` (stereo not drawn): the pKi in [5] and in experiment [6] was 4.30 each time. Further, the fold change (FC) in [21] came out at 1.23; in [22] it was 1.2.

As a reminder, the pKi is −log10 of the Ki, conventionally taken in molar units.
